US10464922B2, “Metalloenzyme inhibitor compounds” (NQP 1598 LTD., priority 2015, dated 2019)
In brackets after ≈: the same amount, converted by molar mass. Where two headings read alike, the source gives them in different places.

Legend:
[1] = tested on: C. albicans (ATCC 90028); assay: Minimum inhibitory concentration, in vitro broth microdilution assay (CLSI M27-A2); type: cell-based, Candida albicans; details: for MIC: Candida albicans, ATCC90028, 48 h, read-out: Candida albicans MIC
How it was run: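 CLSI M27-A2 broth microdilution: 11 two-fold DMSO dilutions into RPMI-1640+MOPS with 1×10^3–1×10^4 CFU/mL, 2 percent DMSO final. Incubated 2 days at 36° C; MIC from visual growth scoring, duplicates.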

[2] = tested on: A. fumigatus; assay: A. fumigatus MIC at 100% growth inhibition (CLSI M38-A2); type: cell-based, Aspergillus fumigatus; details: for MIC: Aspergillus fumigatus, read-out: Aspergillus fumigatus MIC
Protocol: A. fumigatus MICs were determined at 100% growth inhibition following CLSI guidelines at a concentration range of 8-0.0078 μg/mL (CLSI M38-A2).

[3] = ATCC 90028, about 50% growth reduction, 2 days at 36° C., range tested 8-0.0078 μg/mL, values given as ranges
[4] = 100% growth inhibition, range tested 8-0.0078 μg/mL, values given as ranges

Row | SMILES | MIC [1, 3] [µg/mL] | MIC [2, 4] [µg/mL] | also measured
1 | CC(C)(O)c1ccc(N2CCN(c3ccc(-c4ccc(C(F)(F)[C@](O)(Cn5cnnn5)c5ccc(F)cc5F)nc4)cc3)CC2)cc1 [Example 72, (R)-2-(2,4-difluorophenyl)-1,1-difluoro-1-(5-(4-(4-(4-(2-hydroxypropan-2-yl)phenyl)piperazin-1-yl)phenyl)pyridin-2-yl)-3-(1H-tetrazol-1-yl) propan-2-ol] | 0.0078 to 0.01 (≈ 0.012 to 0.0154 µM) | 0.25 to 1 (≈ 0.386 to 1.54 µM) | 
2 | N#Cc1ccc2nc(N3CCN(c4ccc(-c5ccc(C(F)(F)[C@](O)(Cn6cnnn6)c6ccc(F)cc6F)nc5)cc4)CC3)[nH]c2c1 [Example 74, (R)-2-(4-(4-(6-(2-(2,4-difluorophenyl)-1,1-difluoro-2-hydroxy-3-(1H-tetrazol-1-yl)propyl)pyridin-3-yl)phenyl)piperazin-1-yl)-1H-benzo [d] imidazole-6-carbonitrile] | 0.0078 to 0.01 (≈ 0.0119 to 0.0153 µM) | > 8 | 
3 | CC(O)C(C)n1ncn(-c2ccc(N3CCN(c4ccc(-c5ccc(C(F)(F)[C@](O)(Cn6cnnn6)c6ccc(F)cc6F)nc5)cc4)CC3)cc2)c1=O (stereo partly drawn) [Example 75, 4-(4-(4-(4-(6-((R)-2-(2,4-difluorophenyl)-1,1-difluoro-2-hydroxy-3-(1H-tetrazol-1-yl)propyl)pyridin-3-yl)phenyl)piperazin-1-yl)phenyl)-2-(3-hydroxybutan-2-yl)-2,4-dihydro-3H-1,2,4-triazol-3-one] | 0.0078 to 0.01 (≈ 0.0105 to 0.0134 µM) | 0.062 to 0.25 (≈ 0.0832 to 0.336 µM) | 
4 | CC(C)Cc1nc2ccc(N3CCN(c4ccc(-c5ccc(C(F)(F)[C@](O)(Cn6cnnn6)c6ccc(F)cc6F)nc5)cc4)CC3)cc2[nH]1 [Example 78, (R)-2-(2,4-difluorophenyl)-1,1-difluoro-1-(5-(4-(4-(2-isobutyl-1H-benzo [d]imidazol-6-yl)piperazin-1-yl)phenyl)pyridin-2-yl)-3-(1H-tetrazol-1-yl) propan-2-ol] | 0.01 to 0.1 (≈ 0.0146 to 0.146 µM) | > 8 | 
5 | CC[C@@H]([C@H](C)O)n1ncn(-c2ccc(N3CCN(c4ccc(-c5ccc(C(F)(F)[C@](O)(Cn6cnnn6)c6ccc(F)cc6F)nc5)cc4)CC3)cn2)c1=O [Example 82, 4-(5-(4-(4-(6-((R)-2-(2,4-difluorophenyl)-1,1-difluoro-2-hydroxy-3-(1H-tetrazol-1-yl)propyl)pyridin-3-yl)phenyl)piperazin-1-yl)pyridin-2-yl)-2-((2S,3S)-2-hydroxypentan-3-yl)-2,4-dihydro-3H-1,2,4-triazol-3-one] |  |  | Candida albicans MIC [1, 3]: 0.010 to 0.10 µg/mL; Aspergillus fumigatus MIC [2, 4]: 0.062 to 0.25 µg/mL
6 | OC(c1cccc(N2CCN(c3ccc(-c4ccc(C(F)(F)[C@](O)(Cn5cnnn5)c5ccc(F)cc5F)nc4)cc3)CC2)c1)C(F)(F)F (stereo partly drawn) [Example 86, (2R)-2-(2,4-difluorophenyl)-1,1-difluoro-3-(1H-tetrazol-1-yl)-1-(5-(4-(4-(3-(2,2,2-trifluoro-1-hydroxyethyl)phenyl)piperazin-1-yl)phenyl)pyridin-2-yl) propan-2-ol] | 0.0078 to 0.01 (≈ 0.0113 to 0.0145 µM) | 0.25 to 1 (≈ 0.364 to 1.45 µM) | 
7 | O=c1n(-c2ccc(N3CCN(c4ccc(-c5ccc(C(F)(F)[C@](O)(Cn6cnnn6)c6ccc(F)cc6F)nc5)cc4)CC3)cn2)cnn1CC(F)(F)F [Example 87, (R)-4-(5-(4-(4-(6-(2-(2,4-difluorophenyl)-1,1-difluoro-2-hydroxy-3-(1H-tetrazol-1-yl)propyl)pyridin-3-yl)phenyl)piperazin-1-yl)pyridin-2-yl)-2-(2,2,2-trifluoroethyl)-2,4-dihydro-3H-1,2,4-triazol-3-one] | 0.0078 to 0.01 (≈ 0.0103 to 0.0132 µM) | 0.062 to 0.25 (≈ 0.082 to 0.331 µM) | 
8 | NC(CC(F)(F)F)C(=O)Nc1ccc(N2CCN(c3ccc(-c4ccc(C(F)(F)[C@](O)(Cn5cnnn5)c5ccc(F)cc5F)nc4)cc3)CC2)cc1 (stereo partly drawn) [Example 88, 2-amino-N-(4-(4-(4-(6-((R)-2-(2,4-difluorophenyl)-1,1-difluoro-2-hydroxy-3-(1H-tetrazol-1-yl)propyl)pyridin-3-yl)phenyl)piperazin-1-yl)phenyl)-4,4,4-trifluorobutanamide] |  |  | MIC [1]: 0.01 to 0.1 µg/mL (≈ 0.0134 to 0.134 µM); MIC [2]: > 8 µg/mL
9 | CCC(C(=O)Nc1ccc(N2CCN(c3ccc(-c4ccc(C(F)(F)[C@](O)(Cn5cnnn5)c5ccc(F)cc5F)nc4)cc3)CC2)cc1)C(C)O (stereo partly drawn) [Example 89, N-(4-(4-(4-(6-((R)-2-(2,4-difluorophenyl)-1,1-difluoro-2-hydroxy-3-(1H-tetrazol-1-yl)propyl)pyridin-3-yl)phenyl)piperazin-1-yl)phenyl)-2-ethyl-3-hydroxybutanamide] | 0.01 to 0.1 (≈ 0.0139 to 0.139 µM) | 0.25 to 1 (≈ 0.348 to 1.39 µM) | 
10 | CC(C)(C)Cc1nc2ccc(N3CCN(c4ccc(-c5ccc(C(F)(F)[C@](O)(Cn6cnnn6)c6ccc(F)cc6F)nc5)cc4)CC3)cc2[nH]1 [Example 90, (R)-2-(2,4-difluorophenyl)-1,1-difluoro-1-(5-(4-(4-(2-neopentyl-1H-benzo [d]imidazol-6-yl)piperazin-1-yl)phenyl)pyridin-2-yl)-3-(1H-tetrazol-1-yl) propan-2-ol] | 0.0078 to 0.01 (≈ 0.0111 to 0.0143 µM) | > 8 | 
11 | CC(C)n1ccn(-c2ccc(N3CCN(c4ccc(-c5ccc(C(F)(F)[C@](O)(Cn6cnnn6)c6ccc(F)cc6F)nc5)cc4)CC3)cc2)c1=O [Example 91, 1-(4-(4-(4-(6-(2-(2,4-difluorophenyl)-1,1-difluoro-2-hydroxy-3-(1H-tetrazol-1-yl)propyl)pyridin-3-yl)phenyl)piperazin-1-yl)phenyl)-3-isopropyl-1,3-dihydro-2H-imidazol-2-one] | 0.0078 to 0.01 (≈ 0.0109 to 0.014 µM) | 0.25 to 1 (≈ 0.35 to 1.4 µM) | 
12 | CC[C@@H]([C@H](C)O)n1cnc(-c2ccc(N3CCN(c4ccc(-c5ccc(C(F)(F)[C@](O)(Cn6cnnn6)c6ccc(F)cc6F)nc5)cc4)CC3)cc2)n1 [Example 92, (2S,3S)-3-(3-(4-(4-(4-(6-(2-(2,4-difluorophenyl)-1,1-difluoro-2-hydroxy-3-(1H-tetrazol-1-yl)propyl)pyridin-3-yl)phenyl)piperazin-1-yl)phenyl)-1H-1,2,4-triazol-1-yl) pentan-2-ol] | 0.0078 to 0.01 (≈ 0.0105 to 0.0135 µM) | 0.25 to 1 (≈ 0.337 to 1.35 µM) | 
13 | CCC(C(C)O)n1ncn(-c2ccc(N3CCN(c4ccc(-c5ccc(C(F)(F)[C@](O)(Cn6cnnn6)c6ccc(F)cc6F)nc5)cc4)CC3)cc2)c1=O (stereo partly shown) [Example 93] | 0.0078 to 0.01 (≈ 0.0103 to 0.0132 µM) | 0.25 to 1 (≈ 0.329 to 1.32 µM) | 

Continued, in another order:

Row | MIC [1, 3] [µg/mL] | MIC [2, 4] [µg/mL] | SMILES | also measured
14 | 0.0078 to 0.01 (≈ 0.0116 to 0.0149 µM) | > 8 | N#Cc1ccc2nc(N3CCN(c4ccc(-c5ccc(C(F)(F)[C@](O)(Cn6cnnn6)c6ccc(F)cc6F)nc5)cc4)CC3)sc2c1 [Example 73, (R)-2-(4-(4-(6-(2-(2,4-difluorophenyl)-1,1-difluoro-2-hydroxy-3-(1H-tetrazol-1-yl)propyl)pyridin-3-yl)phenyl)piperazin-1-yl) benzo [d] thiazole-6-carbonitrile] | 
15 | 0.0078 to 0.01 (≈ 0.0116 to 0.0149 µM) | > 8 | N#Cc1ccc2sc(N3CCN(c4ccc(-c5ccc(C(F)(F)[C@](O)(Cn6cnnn6)c6ccc(F)cc6F)nc5)cc4)CC3)nc2c1 [Example 76, (R)-2-(4-(4-(6-(2-(2,4-difluorophenyl)-1,1-difluoro-2-hydroxy-3-(1H-tetrazol-1-yl)propyl)pyridin-3-yl)phenyl)piperazin-1-yl) benzo [d] thiazole-5-carbonitrile] | 
16 | 0.01 to 0.1 (≈ 0.0141 to 0.141 µM) | 0.25 to 1 (≈ 0.351 to 1.41 µM) | O[C@@](Cn1cnnn1)(c1ccc(F)cc1F)C(F)(F)c1ccc(-c2ccc(N3CCN(c4ccc5nc(CC(F)(F)F)[nH]c5c4)CC3)cc2)cn1 [Example 77, (R)-2-(2,4-difluorophenyl)-1,1-difluoro-3-(1H-tetrazol-1-yl)-1-(5-(4-(4-(2-(2,2,2-trifluoroethyl)-1H-benzo [d]imidazol-6-yl)piperazin-1-yl)phenyl)pyridin-2-yl) propan-2-ol] | 
17 | 0.0078 to 0.01 (≈ 0.0117 to 0.015 µM) | 0.25 to 1 (≈ 0.374 to 1.5 µM) | Cn1c(N2CCN(c3ccc(-c4ccc(C(F)(F)[C@](O)(Cn5cnnn5)c5ccc(F)cc5F)nc4)cc3)CC2)nc2ccc(C#N)cc21 [Example 79, (R)-2-(4-(4-(6-(2-(2,4-difluorophenyl)-1,1-difluoro-2-hydroxy-3-(1H-tetrazol-1-yl)propyl)pyridin-3-yl)phenyl)piperazin-1-yl)-1-methyl-1H-benzo [d] imidazole-6-carbonitrile] | 
18 | 0.0078 to 0.01 (≈ 0.0117 to 0.015 µM) | > 8 | Cn1c(N2CCN(c3ccc(-c4ccc(C(F)(F)[C@](O)(Cn5cnnn5)c5ccc(F)cc5F)nc4)cc3)CC2)nc2cc(C#N)ccc21 [Example 80, (R)-2-(4-(4-(6-(2-(2,4-difluorophenyl)-1,1-difluoro-2-hydroxy-3-(1H-tetrazol-1-yl)propyl)pyridin-3-yl)phenyl)piperazin-1-yl)-1-methyl-1H-benzo [d] imidazole-5-carbonitrile] | 
19 | 0.0078 to 0.01 (≈ 0.0105 to 0.0135 µM) | 0.25 to 1 (≈ 0.337 to 1.35 µM) | CC(C)(C)Cn1ncn(-c2ccc(N3CCN(c4ccc(-c5ccc(C(F)(F)[C@](O)(Cn6cnnn6)c6ccc(F)cc6F)nc5)cc4)CC3)cc2)c1=O [Example 81, (R)-4-(4-(4-(4-(6-(2-(2,4-difluorophenyl)-1,1-difluoro-2-hydroxy-3-(1H-tetrazol-1-yl)propyl)pyridin-3-yl)phenyl)piperazin-1-yl)phenyl)-2-neopentyl-2,4-dihydro-3H-1,2,4-triazol-3-one] | 
20 | 0.01 to 0.1 (≈ 0.0136 to 0.136 µM) | 0.25 to 1 (≈ 0.341 to 1.36 µM) | CC[C@@H]([C@H](C)O)N(C)C(=O)c1ccc(N2CCN(c3ccc(-c4ccc(C(F)(F)[C@](O)(Cn5cnnn5)c5ccc(F)cc5F)nc4)cc3)CC2)cc1 [Example 83, 4-(4-(4-(6-((R)-2-(2,4-difluorophenyl)-1,1-difluoro-2-hydroxy-3-(1H-tetrazol-1-yl)propyl)pyridin-3-yl)phenyl)piperazin-1-yl)-N-((2S,3S)-2-hydroxypentan-3-yl)-N-methylbenzamide] | 
